Data as given in ChEMBL document CHEMBL1136493, “Synthesis and anti-HIV properties of new water-soluble bis-functionalized[60]fullerene derivatives” (Bioorg Med Chem Lett, 2003).

Assays:
Conditions in all cases: Homo sapiens
[1] = test system: CCRF-CEM; assay: Effective concentration required to inhibit HIV-induced (HIV-2) cytopathicity by 50% in CEM cell cultures; type: functional, cell-based
[2] = test system: CCRF-CEM; assay: Effective concentration required to inhibit HIV-induced (HIV-1) cytopathicity by 50% in CEM cell cultures; type: functional, cell-based
[3] = test system: CCRF-CEM; assay: Cytostatic concentration required to inhibit CEM cell proliferation by 50%; type: functional

Row | Structure (SMILES) | EC50 [1] [µM] | EC50 [2] [µM] | CC50 [3] [µM]
1 | NCCOCCOCCN1CC23C4=c5c6c7c8c9c%10c%11c%12c%13c%14c%15c%16c%17c%18c%19c%20c%21c%22c(c2c%20c2c%20c%23c%24c(c5c7c5c9c7c%11c(c%12%16)c9c%17c(c%192)c%23c9c7c%245)C%203C1)C4C1C=6C2c3c1c-%22c(c-%14c3C%13C%10C82)C%211CN(CCOCCOCCN)CC%15%181 (stereo not given) | > 4 | > 4 | 7.4
2 | C[N+]1(CCOCCOCCN)CC23C4=c5c6c7c8c9c%10c%11c%12c%13c%14c%15c%16c%17c%18c%19c%20c%21c%22c%23c%24c(c2c%22c2c%22c%25c%26c(c5c(c6%10)c5c%11c6c%13c(c%14%18)c%10c%19c(c%212)c%25c%10c6c%265)C%223C1)C4C7c1c-%24c(c-%16c(c1-8)C%15C9%12)C%23C%17%20 (stereo not given) | > 4 | > 4 | 44.3
3 | NCCOCCOCCN1CC23C4=c5c6c7c8c9c%10c%11c%12c%13c9c9c%14c%15c%16c%17c%18c%19c%20c%21c%22c%23c%24c(c-%11c(c2c%24c2c%11c%24c%25c(c5c5c6c(c8%14)c%15c6c%17c(c%25c56)c5c%18c%21c(c%232)c%245)C%113C1)C4C%107)C%12C%22C%201CN(CCOCCOCCN)CC%131C9C%19%16 (stereo not given) | > 4 | > 4 | 7.2
4 | NCCOCCOCCN1CC23C4=c5c6c7c8c9c%10c%11c%12c%13c%14c%15c%16c%17c%18c%19c%20c%21c%22c%23c%24c(c2c%22c2c%22c%25c%26c(c5c(c6%10)c5c%11c6c%13c(c%14%18)c%10c%19c(c%212)c%25c%10c6c%265)C%223C1)C4C7C1=C%24C(=C%16C2(CN(CCOCCOCCN)CC182)C%15C9%12)C%23C%17%20 (stereo not given) | > 4 | > 4 | 7.63
5 | COCCOCCOCCOC(=O)C1(C(=O)OCCOCCOCCOC)C23C4=c5c6c7c8c9c%10c%11c%12c%13c9c9c%14c%15c%16c%17c%18c%19c%20c%21c%22c%23c%24c(c-%11c(c2c%24c2c%11c%24c%25c(c5c5c6c(c8%14)c%15c6c%17c(c%25c56)c5c%18c%21c(c%232)c%245)C%1113)C4C%107)C%12C%22C%201CN(CCOCCOCCN)CC%131C9C%19%16 (stereo not given) | > 4 | > 4 | –
6 | O=C(O)CN(CCOCCOCCN1CC23C4=c5c6c7c8c9c%10c%11c%12c%13c9c9c%14c%15c%16c%17c%18c%19c%20c%21c%22c%23c%24c(c-%11c(c2c%24c2c%11c%24c%25c(c5c5c6c(c8%14)c%15c6c%17c(c%25c56)c5c%18c%21c(c%232)c%245)C%113C1)C4C%107)C%12C%22C%201CN(CCOCCOCCN(CC(=O)O)CC(=O)O)CC%131C9C%19%16)CC(=O)O (stereo not given) | > 4 | 2.01 | –
7 | C[N+]1(CCOCCOCCN)CC23C4=c5c6c7c8c9c%10c%11c%12c%13c%14c%15c%16c%17c%18c%19c%20c%21c%22c%23c%24c(c2c%22c2c%22c%25c%26c(c5c(c6%10)c5c%11c6c%13c(c%14%18)c%10c%19c(c%212)c%25c%10c6c%265)C%223C1)C4C7C1=C%24C(=C%16C2(C[N+](C)(CCOCCOCCN)CC182)C%15C9%12)C%23C%17%20 (stereo not given) | > 4 | 0.96 | 3.02

Continued, in another order:

Row | EC50 [1] [µM] | EC50 [2] [µM] | Structure (SMILES) | CC50 [3] [µM]
8 | > 4 | > 4 | O=C(O)CN(CCOCCOCCN1CC23C4=C5c6c7c8c9c(c%10c%11c%12c%13c%14c%15c%16c%17c%18c%19c%20c%21c%22c%23c(c6c6c%22c%22c%20c(c%15%19)c%13c(c%129)c%22c86)C5C5C6c8c9c(c-%17c%12c8C5C%23C%21C%12%18)C5c8c-9c(c2c-%10c8C%112CN(CCOCCOCCN(CC(=O)O)CC(=O)O)CC%142C%165)C46)C73C1)CC(=O)O (stereo not given) | –
9 | > 4 | 0.4 | C[N+]1(CCOCCOCCN)CC23C4=c5c6c7c8c9c%10c%11c%12c%13c9c9c%14c%15c%16c%17c%18c%19c%20c%21c%22c%23c%24c(c-%11c(c2c%24c2c%11c%24c%25c(c5c5c6c(c8%14)c%15c6c%17c(c%25c56)c5c%18c%21c(c%232)c%245)C%113C1)C4C%107)C%12C%22C%201C[N+](C)(CCOCCOCCN)CC%131C9C%19%16 (stereo not given) | 4.79
10 | > 4 | > 4 | COCCOCCOCCOC(=O)C1(C(=O)OCCOCCOCCOC)C23C4=C5c6c7c8c9c(c%10c%11c%12c%13c%14c%15c%16c%17c%18c%19c%20c%21c%22c%23c(c6c6c%22c%22c%20c(c%15%19)c%13c(c%129)c%22c86)C5C5C6c8c9c(c-%17c%12c8C5C%23C%21C%12%18)C5c8c-9c(c2c-%10c8C%112CN(CCOCCOCCN)CC%142C%165)C46)C713 (stereo not given) | –
11 | > 4 | 2.6 | C[N+]1(CCOCCOCCN)CC23C4=c5c6c7c8c9c%10c%11c%12c%13c%14c%15c%16c%17c%18c%19c%20c%21c%22c(c2c%20c2c%20c%23c%24c(c5c7c5c9c7c%11c(c%12%16)c9c%17c(c%192)c%23c9c7c%245)C%203C1)C4C1C=6C2c3c1c-%22c(c-%14c3C%13C%10C82)C%211C[N+](C)(CCOCCOCCN)CC%15%181 (stereo not given) | 13.2
12 | > 4 | > 4 | NCCOCCOCCN1CC23C4=C5c6c7c8c9c(c%10c%11c%12c%13c%14c%15c%16c%17c%18c%19c%20c%21c%22c%23c(c6c6c%22c%22c%20c(c%15%19)c%13c(c%129)c%22c86)C5C5C6c8c9c(c-%17c%12c8C5C%23C%21C%12%18)C5c8c-9c(c2c-%10c8C%112CN(CCOCCOCCN)CC%142C%165)C46)C73C1 (stereo not given) | 9.6
13 | > 4 | 1.6 | C[N+]1(CCOCCOCCN)CC23C4=C5c6c7c8c9c(c%10c%11c%12c%13c%14c%15c%16c%17c%18c%19c%20c%21c%22c%23c(c6c6c%22c%22c%20c(c%15%19)c%13c(c%129)c%22c86)C5C5C6c8c9c(c-%17c%12c8C5C%23C%21C%12%18)C5c8c-9c(c2c-%10c8C%112C[N+](C)(CCOCCOCCN)CC%142C%165)C46)C73C1 (stereo not given) | 6.59
